From US8809331B2 (Genentech, Inc., priority 2011, dated 2014) come the findings set out here.

In general, Ki refers to the equilibrium dissociation constant of an inhibitor or competing ligand from its target. A high value points to lower affinity.

T1 sequence (Q5S007 whole entry G2019S): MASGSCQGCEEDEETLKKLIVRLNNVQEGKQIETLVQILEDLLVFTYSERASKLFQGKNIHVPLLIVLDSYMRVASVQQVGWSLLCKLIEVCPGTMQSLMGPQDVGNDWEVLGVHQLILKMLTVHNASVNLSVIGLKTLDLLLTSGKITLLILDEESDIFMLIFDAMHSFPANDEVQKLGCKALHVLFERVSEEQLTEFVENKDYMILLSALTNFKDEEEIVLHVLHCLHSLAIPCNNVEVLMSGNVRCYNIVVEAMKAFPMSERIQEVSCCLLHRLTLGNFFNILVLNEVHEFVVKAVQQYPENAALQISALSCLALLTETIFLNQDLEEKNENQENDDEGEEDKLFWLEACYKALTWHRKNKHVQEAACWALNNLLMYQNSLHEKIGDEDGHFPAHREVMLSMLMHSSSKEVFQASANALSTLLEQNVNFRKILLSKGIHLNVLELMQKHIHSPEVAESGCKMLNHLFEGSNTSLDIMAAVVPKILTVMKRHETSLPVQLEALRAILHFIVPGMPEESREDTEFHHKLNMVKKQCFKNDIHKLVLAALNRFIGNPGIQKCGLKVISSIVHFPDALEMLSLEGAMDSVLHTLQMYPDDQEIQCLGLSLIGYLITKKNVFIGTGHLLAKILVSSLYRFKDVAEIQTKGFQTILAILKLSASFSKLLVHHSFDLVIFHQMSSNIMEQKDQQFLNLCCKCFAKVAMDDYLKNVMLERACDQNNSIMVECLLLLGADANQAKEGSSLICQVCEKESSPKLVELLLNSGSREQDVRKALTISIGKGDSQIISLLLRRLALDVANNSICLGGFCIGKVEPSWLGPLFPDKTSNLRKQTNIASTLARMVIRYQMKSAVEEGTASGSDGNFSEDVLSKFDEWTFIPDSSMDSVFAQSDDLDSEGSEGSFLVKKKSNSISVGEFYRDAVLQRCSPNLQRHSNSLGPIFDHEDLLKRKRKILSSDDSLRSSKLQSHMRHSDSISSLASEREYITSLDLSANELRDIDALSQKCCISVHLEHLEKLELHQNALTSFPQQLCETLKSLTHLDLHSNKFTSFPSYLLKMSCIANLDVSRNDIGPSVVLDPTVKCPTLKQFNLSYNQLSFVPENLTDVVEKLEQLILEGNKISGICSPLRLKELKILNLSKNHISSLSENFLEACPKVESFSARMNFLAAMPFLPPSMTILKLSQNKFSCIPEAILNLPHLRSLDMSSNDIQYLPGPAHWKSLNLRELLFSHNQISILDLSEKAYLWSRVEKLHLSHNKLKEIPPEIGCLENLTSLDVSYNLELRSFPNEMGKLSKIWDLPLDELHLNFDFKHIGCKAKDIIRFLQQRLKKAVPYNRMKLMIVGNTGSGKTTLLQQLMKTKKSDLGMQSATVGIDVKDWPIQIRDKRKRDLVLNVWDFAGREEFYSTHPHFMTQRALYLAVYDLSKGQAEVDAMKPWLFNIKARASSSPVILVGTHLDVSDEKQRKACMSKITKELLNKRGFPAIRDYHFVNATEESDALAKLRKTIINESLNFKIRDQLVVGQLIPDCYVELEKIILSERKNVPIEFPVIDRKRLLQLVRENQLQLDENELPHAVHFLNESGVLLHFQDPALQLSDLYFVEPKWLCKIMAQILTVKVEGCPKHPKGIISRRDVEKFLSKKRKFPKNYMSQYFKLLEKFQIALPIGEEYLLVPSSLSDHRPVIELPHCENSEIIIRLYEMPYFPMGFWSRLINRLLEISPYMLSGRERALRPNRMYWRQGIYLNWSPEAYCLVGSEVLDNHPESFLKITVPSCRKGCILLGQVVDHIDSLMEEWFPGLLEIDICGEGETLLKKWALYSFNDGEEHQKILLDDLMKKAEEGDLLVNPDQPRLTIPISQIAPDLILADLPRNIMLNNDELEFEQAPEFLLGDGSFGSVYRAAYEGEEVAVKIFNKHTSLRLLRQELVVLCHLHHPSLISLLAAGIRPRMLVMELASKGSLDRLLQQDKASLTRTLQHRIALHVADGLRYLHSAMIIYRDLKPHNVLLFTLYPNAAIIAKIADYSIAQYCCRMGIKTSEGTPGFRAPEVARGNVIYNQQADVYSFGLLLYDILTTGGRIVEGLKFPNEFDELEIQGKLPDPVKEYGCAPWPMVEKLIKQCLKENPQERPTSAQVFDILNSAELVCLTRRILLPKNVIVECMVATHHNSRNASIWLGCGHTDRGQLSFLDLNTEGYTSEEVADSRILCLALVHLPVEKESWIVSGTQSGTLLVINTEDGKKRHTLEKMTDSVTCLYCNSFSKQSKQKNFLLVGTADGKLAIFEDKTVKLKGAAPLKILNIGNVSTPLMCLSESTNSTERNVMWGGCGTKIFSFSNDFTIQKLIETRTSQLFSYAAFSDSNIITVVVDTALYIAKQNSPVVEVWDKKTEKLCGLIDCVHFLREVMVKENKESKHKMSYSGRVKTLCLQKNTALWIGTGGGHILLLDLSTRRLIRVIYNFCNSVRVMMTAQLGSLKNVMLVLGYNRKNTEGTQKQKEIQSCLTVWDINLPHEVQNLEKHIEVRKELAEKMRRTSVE

One assay has as its target T1, LRRK2 (Homo sapiens, UniProt Q5S007, G2019S).
T1 construct: purchased Invitrogen PV4882
Put plainly: In Vitro LRRK2 LabChip Assay (LRRK2 Ki). It is filed as biochemical. To be noted: Table 5 compounds (formula I). The procedure: In Vitro LRRK2 LabChip Assay
This assay was used to determine a compound's potency in inhibiting activity of LRRK2 by determining, Kiapp, IC50, or percent inhibition values. In a polypropylene plate, LRRK2, fluorescently-labeled peptide substrate, ATP and test compound were incubated together. Using a LabChip 3000 (Caliper Life Sciences), after the reaction the substrate was separated by capillary electrophoresis into two populations: phosphorylated and unphosphorylated. The relative amounts of each were quantitated by fluorescence intensity. LRRK2 Ki was determined according to the equation: Y=V0*(1−((x+Ki*(1+S/Km)+Et)/(2*Et)−(((x+Ki*(1+S/Km)+Et)^2−(4*Et*x))^0.5)/(2*Et))). Ki values in Table 4 and elsewhere herein are shown in μM.
Assay conditions and materials used were as follows:
LRRK2 Wild type in 5 mM MgCl2: 15 nM (Invitrogen lot #500607F)
Kinase reaction time: 2 hours
Wild type in 5 mM MgCl2: 80 μM
Solid Support: Black 50 μL volume polypropylene 384 well plate (MatriCal cat # MP101-1-PP)
Kinase: LRRK2 G2019S (Invitrogen cat #PV4882). • LRRK2 Wild type (Invitrogen cat #PV4874).
Substrate: 5FAM-[…]-CONH2
Non-binding plate: 384 well clear V-bottom polypropylene plates (Greiner cat #781280).
ATP: 10 mM ATP (Cell Signaling cat #9804).
Coating Reagent #3: Coating Reagent #3 (Caliper).
Complete Reaction Buffer: H2O/25 mM Tris, pH 8.0/5 mM MgCl2/2 mM DTT/0.01% Triton X-100.
Stop Solution: H2O/100 mM HEPES, pH 7.2/0.015% Brij-35/0.2% Coating Reagent #3/20 mM EDTA.
Separation Buffer: H2O/100 mM HEPES, pH 7.2/0.015% Brij-35/0.1% Coating Reagent #3/1:200 Coating Reagent #8/10 mM EDTA/5% DMSO.
Compound Plate Preparation:
For serial dilutions, 34.6 μl DMSO was added to columns 3-24. For the assay controls, 37.5 μl DMSO was added to columns 1 and 2 of rows A and P. a, d and 50 μl 25 μM G-028831 (Staurosporine) was added to columns 1 and 2, row B. For the samples: to start at 100 μM, 37.5 μl DMSO was to columns 1 and 2, then 12.5 μl 10 mM compound; to start at 10 μM, 78 μl DMSO was added to columns 1 & 2, then 2 μl 10 mM compound; and to start at 1 μM, 25 μM compound (2 μl 10 mM cmpd+798 μl DMSO) was added to empty columns 1 and 2. A Precision instrument was used to perform 1:3.16 serial dilutions (“PLK_BM_serial_halflog”).
ATP was diluted to 282.1 μM in Complete Kinase Buffer (final concentration was 130 μM).
Total and Blank Preparation:
In Complete Reaction Buffer, substrate was diluted to 4 μM. Equal volumes of Complete Reaction Buffer and 4 μM substrate were combined to obtain the blank. Equal volumes of Complete Reaction Buffer and 4 μM substrate were combined and to the combined solution was added 2× final LRRK2 concentration.
To a 50 μl polypropylene plate, 5 μl/well buffer/substrate was added by hand to Blank wells. A Biomek FX was used to start the kinase reaction (“PLK SAR 23 ATP”). The following were added to the appropriate wells:
5 μl/well compound/ATP in Assay Plate;
5 μl/well kinase/substrate in Assay Plate;
The plate was incubated for 2 hours in the dark. Biomek FX was used to stop the kinase reaction (“PLK Stop”), and 10 μl/well Stop solution was added to the Assay Plate. Results were read on the LabChip 3000.
The LabChip 3000 was run using the job “LRRK2 IC50” with the following job settings:
Downstream voltage: −500 V
Upstream voltage: −2350 V
Post sample buffer sip time: 75 seconds
Post dye buffer sip time: 75 seconds
Final delay time: 200 seconds
On to `CNc1nc(Nc2cc(OC)c(C(=O)N3CCN(CCOC)CC3)cc2Cl)ncc1C(F)(F)F` [Compound 1, [5-Chloro-2-methoxy-4-(4-methylamino-5-trifluoromethyl-pyrimidin-2-ylamino)-phenyl]-[4-(2-methoxy-ethyl)-piperazin-1-yl]-methanone], for which the affinity corresponds to a Ki of 4 nM.
As to `CNc1nc(Nc2cc(C)c(C(=O)N3CCOCC3)cc2Cl)ncc1C(F)(F)F` [Compound 2, [5-Chloro-2-methyl-4-(4-methylamino-5-trifluoromethyl-pyrimidin-2-ylamino)-phenyl]-morpholin-4-yl-methanone], the Ki worked out at 7 nM.
The same measure, in the same setting: as for `CNc1nc(Nc2cc(C)c(C(=O)N3CCOCC3)cc2OC)ncc1C(F)(F)F` [Compound 3, [5-Methoxy-2-methyl-4-(4-methylamino-5-trifluoromethyl-pyrimidin-2-ylamino)-phenyl]-morpholin-4-yl-methanone], the figure is 1.43 nM; as for `CNc1nc(Nc2cc(F)c(C(=O)N3CCN4CCCC4C3)cc2OC)ncc1C(F)(F)F` (centres unmarked) [Compound 4, [2-Fluoro-5-methoxy-4-(4-methylamino-5-trifluoromethyl-pyrimidin-2-ylamino)-phenyl]-(hexahydro-pyrrolo[1,2-a]pyrazin-2-yl)-methanone], 3.41 nM.
`CNc1nc(Nc2cc(F)c(C(=O)N3C[C@H]4CC[C@@H](C3)O4)cc2OC)ncc1C(F)(F)F` [Compound 5, [2-Fluoro-5-methoxy-4-(4-methylamino-5-trifluoromethyl-pyrimidin-2-ylamino)-phenyl]-(1S,5R)-8-oxa-3-aza-bicyclo[3.2.1]oct-3-yl-methanone]: the Ki is 1.78 nM.
Take `CCNc1nc(Nc2cc(F)c(C(=O)N3C[C@H]4CC[C@@H](C3)O4)cc2OC)ncc1C(F)(F)F` [Compound 6, [4-(4-Ethylamino-5-trifluoromethyl-pyrimidin-2-ylamino)-2-fluoro-5-methoxy-phenyl]-(1S,5R)-8-oxa-3-aza-bicyclo[3.2.1]oct-3-yl-methanone]: affinity was put at a Ki of 0.501 nM.
Consider `CNc1nc(Nc2cc(F)c(C(=O)N(C)C3CCN(C)CC3)cc2OC)ncc1C(F)(F)F` [Compound 7, 2-Fluoro-5-methoxy-N-methyl-4-(4-methylamino-5-trifluoromethyl-pyrimidin-2-ylamino)-N-(1-methyl-piperidin-4-yl)-benzamide], for which the affinity corresponds to a Ki of 7.55 nM.
Take `CNc1nc(Nc2cc(F)c(C(=O)N3CCC(N4CCOCC4)CC3)cc2OC)ncc1C(F)(F)F` [Compound 8, [2-Fluoro-5-methoxy-4-(4-methylamino-5-trifluoromethyl-pyrimidin-2-ylamino)-phenyl]-(4-morpholin-4-yl-piperidin-1-yl)-methanone]: the affinity corresponds to a Ki of 0.7 nM.
Still for that read-out and setting: as for `COc1nc(Nc2ccc(C(=O)N3CCOCC3)cc2O)ncc1Cl` [Compound 9, [4-(5-Chloro-4-methoxy-pyrimidin-2-ylamino)-3-hydroxy-phenyl]-morpholin-4-yl-methanone], the figure is 120 nM.
As for `CNc1nc(Nc2cc(O)c(C(=O)N3CCOCC3)cc2Cl)ncc1C(F)(F)F` [Compound 10, [5-Chloro-2-hydroxy-4-(4-methylamino-5-trifluoromethyl-pyrimidin-2-ylamino)-phenyl]-morpholin-4-yl-methanone], the Ki came to 11.6 nM.
In the case of `CNc1nc(Nc2cc(F)c(C(=O)N3C[C@@H]4C[C@H]3CO4)cc2OC)ncc1C(F)(F)F` [Compound 11, [2-Fluoro-5-methoxy-4-(4-methylamino-5-trifluoromethyl-pyrimidin-2-ylamino)-phenyl]-(1S,4S)-2-oxa-5-aza-bicyclo[2.2.1]hept-5-yl-methanone], the Ki stood at 2.1 nM.
With `CNc1nc(Nc2ccc(C(=O)N3CCOCC3)c(F)c2F)ncc1C(F)(F)F` [Compound 12, [2,3-Difluoro-4-(4-methylamino-5-trifluoromethyl-pyrimidin-2-ylamino)-phenyl]-morpholin-4-yl-methanone], the Ki was 13.5 nM.
With `CNc1nc(Nc2ccc(C(=O)N3CCOCC3)c(F)c2F)ncc1Cl` [Compound 13, [4-(5-Chloro-4-methylamino-pyrimidin-2-ylamino)-2,3-difluoro-phenyl]-morpholin-4-yl-methanone], the affinity corresponds to a Ki of 14.5 nM.
Molecule `CCNc1nc(Nc2cc(F)c(C(=O)N3C[C@@H]4C[C@H]3CO4)cc2OC)ncc1C(F)(F)F` [Compound 14, [4-(4-Ethylamino-5-trifluoromethyl-pyrimidin-2-ylamino)-2-fluoro-5-methoxy-phenyl]-(1S,4S)-2-oxa-5-aza-bicyclo[2.2.1]hept-5-yl-methanone] gave a Ki of 0.59 nM.
`CNc1nc(Nc2cc(OC)c(C(=O)N3C[C@@H]4C[C@H]3CO4)cc2Cl)ncc1C(F)(F)F` [Compound 15, [5-Chloro-2-methoxy-4-(4-methylamino-5-trifluoromethyl-pyrimidin-2-ylamino)-phenyl]-(1S,4S)-2-oxa-5-aza-bicyclo[2.2.1]hept-5-yl-methanone]: the affinity, expressed as Ki, was 2.55 nM.
Regarding `CNc1nc(Nc2cc(F)c(C(=O)N3CCOCC3)cc2F)ncc1C(F)(F)F` [Compound 16, [2,5-Difluoro-4-(4-methylamino-5-trifluoromethyl-pyrimidin-2-ylamino)-phenyl]-morpholin-4-yl-methanone], the affinity corresponds to a Ki of 24.2 nM.
In turn, `CNc1nc(Nc2cc(F)c(C(=O)N3CCOCC3)cc2F)ncc1Cl` [Compound 17, [4-(5-Chloro-4-methylamino-pyrimidin-2-ylamino)-2,5-difluoro-phenyl]-morpholin-4-yl-methanone] displayed a Ki of 35.6 nM.
In the case of `CCNc1nc(Nc2cc(F)c(C(=O)NCC(C)(C)O)cc2OC)ncc1C(F)(F)F` [Compound 18, 4-(4-Ethylamino-5-trifluoromethyl-pyrimidin-2-ylamino)-2-fluoro-N-(2-hydroxy-2-methyl-propyl)-5-methoxy-benzamide], the affinity, expressed as Ki, was 0.429 nM.
In turn, `CCNc1nc(Nc2cc(F)c(C(=O)N(C)CC(C)(C)O)cc2OC)ncc1C(F)(F)F` [Compound 19, 4-(4-Ethylamino-5-trifluoromethyl-pyrimidin-2-ylamino)-2-fluoro-N-(2-hydroxy-2-methyl-propyl)-5-methoxy-N-methyl-benzamide] returned a Ki of 1.94 nM.
`CNc1nc(Nc2cc(OC)c(C(=O)N3CC(N4CCOCC4)C3)cc2Cl)ncc1C(F)(F)F` [Compound 20, [5-Chloro-2-methoxy-4-(4-methylamino-5-trifluoromethyl-pyrimidin-2-ylamino)-phenyl]-(3-morpholin-4-yl-azetidin-1-yl)-methanone] had a Ki of 3.12 nM.
Molecule `CCNc1nc(Nc2ccc(C(=O)NC(C)(C)C)cc2OC)ncc1C(F)(F)F` [Compound 21, N-tert-Butyl-4-(4-ethylamino-5-trifluoromethyl-pyrimidin-2-ylamino)-3-methoxy-benzamide] gave a Ki of 0.371 nM.
For the molecule `CNc1nc(Nc2ccc(C(=O)N3CCOCC3)cc2F)ncc1C(F)(F)F` [Compound 22, [3-Fluoro-4-(4-methylamino-5-trifluoromethyl-pyrimidin-2-ylamino)-phenyl]-morpholin-4-yl-methanone], the Ki was 20.9 nM.
On the same count and under the same terms, with `CNc1nc(Nc2cc(OC)c(C(=O)N3CCN(C4COC4)CC3)cc2Cl)ncc1C(F)(F)F` [Compound 23, [5-Chloro-2-methoxy-4-(4-methylamino-5-trifluoromethyl-pyrimidin-2-ylamino)-phenyl]-(4-oxetan-3-yl-piperazin-1-yl)-methanone] the figure was 4.09 nM.

The same assay, now with this note: Table 6 compounds (formula II/III, fused ring).
`CNc1nc(Nc2cc(C)c(C(=O)N3CCOCC3)cc2Cl)ncc1C(F)(F)F` [Compound 2, [5-Chloro-2-methyl-4-(4-methylamino-5-trifluoromethyl-pyrimidin-2-ylamino)-phenyl]-morpholin-4-yl-methanone] registered a Ki of 0.31 nM.
The same measure, in the same setting: as for `CNc1nc(Nc2cc(C)c(C(=O)N3CCOCC3)cc2OC)ncc1C(F)(F)F` [Compound 3, [5-Methoxy-2-methyl-4-(4-methylamino-5-trifluoromethyl-pyrimidin-2-ylamino)-phenyl]-morpholin-4-yl-methanone], the figure is 1.08 nM.
The same measure, in the same setting: as for `CCNc1nc(Nc2ccc(C(=O)N3CCC(F)(F)C3)c3c2OCCO3)ncc1C(F)(F)F` [Compound 6], the figure is 0.636 nM.
